# Data: PMC7402526, “An in vitro quantitative systems pharmacology approach for deconvolving mechanisms of drug-induced, multilineage cytopenias” (PLoS Computational Biology, 2020)
# Assays:
# monocytes (monocyte-lin) = experiment: MLTA, Mono: concentration-response and QSP model fit; assay type: cell-based, human; settings: Homo sapiens, Monocyte, 144 h
# Procedure, shortened: (§1)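 Six-day flow cytometry counts, bead-normalized and expressed relative to the mean of six vehicle wells, underlie each value. Cells were primary human bone marrow CD34+ cells cultured in SFEM II with cytokines promoting multi-lineage differentiation and self-renewal.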
# MK cells (MK-lin) = experiment: MLTA, MK: concentration-response and QSP model fit; assay type: cell-based, human; settings: Homo sapiens, 144 h
# Procedure, shortened: (§2)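 Freeze-thawed primary human bone marrow CD34+ cells were cultured 6 days in SFEM II with a cytokine cocktail, drug added on day 0. Subsets were counted by 17-parameter flow cytometry with TruCount beads and normalized to vehicle wells. An Emax QSP model (Emax 0–2, L1 regularization) was fitted to these counts.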
# [1] = test system: total dead cells (totalDeadCells); experiment: MLTA, total dead cells concentration-response; assay type: cell-based; settings: Homo sapiens, 144 h, 6 days, normalized to vehicle control, read-out: total_dead normalized cell count
# Method: A custom optimized cytokine cocktail was developed using commercially available cytokines (Peprotech, New Jersey) to facilitate simultaneous multi-lineage differentiation and self-renewal of freeze-thawed primary human bone marrow-derived CD34+ cells in SFEM II media (cells and media from StemCell Technologies, Vancouver). Cultures were carried out in ultra-low attachment 96-well plates (Corning, New York) with test article added on day 0 and cultured at 37°C, 85% relative humidity, and 5% CO2 for six days before interrogating drug impact via 17-parameter flow cytometry.
# The flow cytometry panel used to define hematopoietic subsets was composed of CD34-PECy7, CD90-PECY5, CD38-AF488, CD371-PE, CD45Ra-BV421, CD14-BV605, CD42b-AF647, CD10-PEDazzle594, CD235a-PerCPCy5.5 (BioLegend, California), CD15-BUV395, CD41a-APCH7, CD71-BV786 (BD Biosciences, California), and DAPI for dead cell exclusion (ThermoFisher, California). In short, Day 6 cells were harvested, FcR-blocked (FcR binding inhibitor, ThermoFisher), surface-stained, then analyzed in a buffer containing TruCount Control Beads using a BD LSR Fortessa SORP fitted with a high-throughput sampler (BD Biosciences, California). Data was analyzed in Diva 6.0.2 and exported to CSV where after all cell data was transformed to cell per mL then normalized on a per-donor basis to untreated control wells to determine drug impact.
# Donor material was collected and cultured as described above. The number of replicate donor samples per drug ranged from 2–7 and varied per drug (S1 Table). Drug treatment was added at time 0 and cells were maintained in culture for 6 days. Concentrations tested for each drug compound are contained in S1 Table. Concentrations were selected to span a range that is clinically useful. Following treatment, cell populations were measured using flow cytometry. We extracted cell counts from flow cytometry data, normalized to bead counts, and corrected for well volume.
# Each well was normalized to the average of six vehicle control wells. For drugs that were tested across multiple runs of the assay, vehicle-normalized donor data were pooled, and we used the average of these pooled data for further modeling. Normalized data used as model inputs are included in S1 Table.
# [2] = test system: lymphocyte progenitors (LymP); experiment: MLTA, LymP: concentration-response and QSP model fit; assay type: cell-based, human; settings: Homo sapiens, Lymphocyte, 144 h
# Procedure, shortened: as §2
# [3] = test system: monocyte progenitors (monocyte prog); experiment: MLTA, MonoP: concentration-response and QSP model fit; assay type: cell-based, human; settings: Homo sapiens, Monocyte, 144 h
# Procedure, shortened: as §1
# B cells (B-lin) = experiment: MLTA, B-lin: concentration-response and QSP model fit; assay type: cell-based, human; settings: Homo sapiens, B-cell, 144 h
# Procedure, shortened: as §2
# [4] = test system: granulocyte-macrophage progenitor (GMPs); experiment: MLTA, GMPs: concentration-response and QSP model fit; assay type: cell-based, human; settings: Homo sapiens, 144 h
# Procedure, shortened: as §2
# granulocytes (Gran-lin) = experiment: MLTA, Gran: concentration-response and QSP model fit; assay type: cell-based, human; settings: Homo sapiens, 144 h
# Procedure, shortened: as §1
# [5] = QSP model fit of 6-day MLTA data
compound,measurement,setting,value
CN(C)C(=O)c1cc2cnc(Nc3ccc(N4CCNCC4)cn3)nc2n1C1CCCC1 [ribociclib],EC50,monocytes (monocyte-lin); [5],180 nM
same,activity at 0.0002 µM,"monocytes (monocyte-lin); dose 0.2 nM, 6 days, normalized to vehicle control, read-out: Mon normalized cell count",84.3%
same,activity at 0.001 µM,"monocytes (monocyte-lin); dose 1 nM, 6 days, normalized to vehicle control, read-out: Mon normalized cell count",96.7%
same,activity at 0.005 µM,"monocytes (monocyte-lin); dose 5 nM, 6 days, normalized to vehicle control, read-out: Mon normalized cell count",92.1%
same,activity at 0.025 µM,"monocytes (monocyte-lin); dose 25 nM, 6 days, normalized to vehicle control, read-out: Mon normalized cell count",78.1%
same,activity at 0.1 µM,"monocytes (monocyte-lin); dose 100 nM, 6 days, normalized to vehicle control, read-out: Mon normalized cell count",55.4%
same,activity at 0.5 µM,"monocytes (monocyte-lin); dose 500 nM, 6 days, normalized to vehicle control, read-out: Mon normalized cell count",31.4%
same,activity at 2.5 µM,"monocytes (monocyte-lin); dose 2500 nM, 6 days, normalized to vehicle control, read-out: Mon normalized cell count",8.51%
same,Emax,"monocytes (monocyte-lin); parameter from QSP model fitting, read-out: Emax_drug_Mono",19.5%
same,EC50,MK cells (MK-lin); [5],2040 nM
same,activity at 0.0002 µM,"MK cells (MK-lin); dose 0.2 nM, 6 days, normalized to vehicle control, read-out: MK normalized cell count",102%
same,activity at 0.001 µM,"MK cells (MK-lin); dose 1 nM, 6 days, normalized to vehicle control, read-out: MK normalized cell count",98.3%
same,activity at 0.005 µM,"MK cells (MK-lin); dose 5 nM, 6 days, normalized to vehicle control, read-out: MK normalized cell count",91.7%
same,activity at 0.025 µM,"MK cells (MK-lin); dose 25 nM, 6 days, normalized to vehicle control, read-out: MK normalized cell count",83.6%
same,activity at 0.1 µM,"MK cells (MK-lin); dose 100 nM, 6 days, normalized to vehicle control, read-out: MK normalized cell count",101%
same,activity at 0.5 µM,"MK cells (MK-lin); dose 500 nM, 6 days, normalized to vehicle control, read-out: MK normalized cell count",64.4%
same,activity at 2.5 µM,"MK cells (MK-lin); dose 2500 nM, 6 days, normalized to vehicle control, read-out: MK normalized cell count",27.7%
same,Emax,"MK cells (MK-lin); parameter from QSP model fitting, read-out: Emax_drug_MK",4.81%
same,activity at 0.0002 µM,[1]; dose 0.2 nM,117%
same,activity at 0.001 µM,[1]; dose 1 nM,117%
same,activity at 0.005 µM,[1]; dose 5 nM,129%
same,activity at 0.025 µM,[1]; dose 25 nM,81.1%
same,activity at 0.1 µM,[1]; dose 100 nM,60%
same,activity at 0.5 µM,[1]; dose 500 nM,32.1%
same,activity at 2.5 µM,[1]; dose 2500 nM,27.8%
same,activity at 0.0002 µM,"[2]; dose 0.2 nM, 6 days, normalized to vehicle control, read-out: LymP normalized cell count",87.8%
same,activity at 0.001 µM,"[2]; dose 1 nM, 6 days, normalized to vehicle control, read-out: LymP normalized cell count",95.2%
same,activity at 0.005 µM,"[2]; dose 5 nM, 6 days, normalized to vehicle control, read-out: LymP normalized cell count",100%
same,activity at 0.025 µM,"[2]; dose 25 nM, 6 days, normalized to vehicle control, read-out: LymP normalized cell count",61.7%
same,activity at 0.1 µM,"[2]; dose 100 nM, 6 days, normalized to vehicle control, read-out: LymP normalized cell count",39.1%
same,activity at 0.5 µM,"[2]; dose 500 nM, 6 days, normalized to vehicle control, read-out: LymP normalized cell count",17.4%
same,activity at 2.5 µM,"[2]; dose 2500 nM, 6 days, normalized to vehicle control, read-out: LymP normalized cell count",4.31%
same,Emax,"[2]; parameter from QSP model fitting, read-out: Emax_drug_LymP",0.032%
same,activity at 0.0002 µM,"[3]; dose 0.2 nM, 6 days, normalized to vehicle control, read-out: MonoPs normalized cell count",100%
same,activity at 0.001 µM,"[3]; dose 1 nM, 6 days, normalized to vehicle control, read-out: MonoPs normalized cell count",108%
same,activity at 0.005 µM,"[3]; dose 5 nM, 6 days, normalized to vehicle control, read-out: MonoPs normalized cell count",99.8%
same,activity at 0.025 µM,"[3]; dose 25 nM, 6 days, normalized to vehicle control, read-out: MonoPs normalized cell count",80.2%
same,activity at 0.1 µM,"[3]; dose 100 nM, 6 days, normalized to vehicle control, read-out: MonoPs normalized cell count",45.6%
same,activity at 0.5 µM,"[3]; dose 500 nM, 6 days, normalized to vehicle control, read-out: MonoPs normalized cell count",16.7%
same,activity at 2.5 µM,"[3]; dose 2500 nM, 6 days, normalized to vehicle control, read-out: MonoPs normalized cell count",6.97%
same,Emax,"[3]; parameter from QSP model fitting, read-out: Emax_drug_MonoP",0.0352%
same,EC50,B cells (B-lin); [5],35.8 nM
same,activity at 0.0002 µM,"B cells (B-lin); dose 0.2 nM, 6 days, normalized to vehicle control, read-out: B-lin normalized cell count",74.3%
same,activity at 0.001 µM,"B cells (B-lin); dose 1 nM, 6 days, normalized to vehicle control, read-out: B-lin normalized cell count",107%
same,activity at 0.005 µM,"B cells (B-lin); dose 5 nM, 6 days, normalized to vehicle control, read-out: B-lin normalized cell count",79.4%
same,activity at 0.025 µM,"B cells (B-lin); dose 25 nM, 6 days, normalized to vehicle control, read-out: B-lin normalized cell count",61.2%
same,activity at 0.1 µM,"B cells (B-lin); dose 100 nM, 6 days, normalized to vehicle control, read-out: B-lin normalized cell count",46.3%
same,activity at 0.5 µM,"B cells (B-lin); dose 500 nM, 6 days, normalized to vehicle control, read-out: B-lin normalized cell count",28%
same,activity at 2.5 µM,"B cells (B-lin); dose 2500 nM, 6 days, normalized to vehicle control, read-out: B-lin normalized cell count",28.3%
same,Emax,"B cells (B-lin); parameter from QSP model fitting, read-out: Emax_drug_B",30.5%
same,EC50,[4]; [5],141 nM
same,activity at 0.0002 µM,"[4]; dose 0.2 nM, 6 days, normalized to vehicle control, read-out: GMPs normalized cell count",91.2%
same,activity at 0.001 µM,"[4]; dose 1 nM, 6 days, normalized to vehicle control, read-out: GMPs normalized cell count",92.5%
same,activity at 0.005 µM,"[4]; dose 5 nM, 6 days, normalized to vehicle control, read-out: GMPs normalized cell count",103%
same,activity at 0.025 µM,"[4]; dose 25 nM, 6 days, normalized to vehicle control, read-out: GMPs normalized cell count",85%
same,activity at 0.1 µM,"[4]; dose 100 nM, 6 days, normalized to vehicle control, read-out: GMPs normalized cell count",73.4%
same,activity at 0.5 µM,"[4]; dose 500 nM, 6 days, normalized to vehicle control, read-out: GMPs normalized cell count",54.4%
same,activity at 2.5 µM,"[4]; dose 2500 nM, 6 days, normalized to vehicle control, read-out: GMPs normalized cell count",29.5%
same,activity at 0.0002 µM,"granulocytes (Gran-lin); dose 0.2 nM, 6 days, normalized to vehicle control, read-out: Gran normalized cell count",92.9%
same,activity at 0.001 µM,"granulocytes (Gran-lin); dose 1 nM, 6 days, normalized to vehicle control, read-out: Gran normalized cell count",98.1%
same,activity at 0.005 µM,"granulocytes (Gran-lin); dose 5 nM, 6 days, normalized to vehicle control, read-out: Gran normalized cell count",109%
same,activity at 0.025 µM,"granulocytes (Gran-lin); dose 25 nM, 6 days, normalized to vehicle control, read-out: Gran normalized cell count",74.6%
same,activity at 0.1 µM,"granulocytes (Gran-lin); dose 100 nM, 6 days, normalized to vehicle control, read-out: Gran normalized cell count",50.7%
same,activity at 0.5 µM,"granulocytes (Gran-lin); dose 500 nM, 6 days, normalized to vehicle control, read-out: Gran normalized cell count",23.7%
same,activity at 2.5 µM,"granulocytes (Gran-lin); dose 2500 nM, 6 days, normalized to vehicle control, read-out: Gran normalized cell count",6.7%
same,Emax,"granulocytes (Gran-lin); parameter from QSP model fitting, read-out: Emax_drug_Gran",0.0359%
